Assay results published in the NIST ThermoML archive (doi:10.1016/j.jct.2018.02.001).
Numbers after ± are expanded uncertainties.

Key:
[1] = 101.33 kPa, Liquid, Vibrating tube method
[2] = mn = molality of the nth substance listed, in mol/kg; details: 100 kPa, Liquid, Vibrating tube method

CCCC[n+]1ccn(CC)c1.[Br-] [1-butyl-3-ethylimidazolium bromide]
mass density ([1]; 293.15 K): 1263.23 ± 13 kg/m3 | mass density ([1]; 298.15 K): 1259.4 ± 13 kg/m3 | mass density ([1]; 303.15 K): 1255.95 ± 13 kg/m3 | mass density ([1]; 308.15 K): 1252.45 ± 13 kg/m3 | mass density ([1]; 313.15 K): 1248.92 ± 12 kg/m3 | mass density ([1]; 318.15 K): 1245.45 ± 12 kg/m3 | mass density ([1]; 323.15 K): 1241.93 ± 12 kg/m3

CCCCCCCCCCCC[n+]1ccn(CCCC)c1.[Br-] [1-butyl-3-dodecyl-1H-imidazolium bromide] + O
mass density ([2]; 293.15 K, m1 = 0.0055): 998.33 ± 1.5 kg/m3 | mass density ([2]; 293.15 K, m1 = 0.0082): 998.38 ± 1.5 kg/m3 | mass density ([2]; 293.15 K, m1 = 0.0092): 998.4 ± 1.5 kg/m3 | mass density ([2]; 293.15 K, m1 = 0.0149): 998.51 ± 1.5 kg/m3 | mass density ([2]; 293.15 K, m1 = 0.0217): 998.64 ± 1.5 kg/m3 | mass density ([2]; 293.15 K, m1 = 0.0252): 998.71 ± 1.5 kg/m3 | mass density ([2]; 293.15 K, m1 = 0.0317): 998.83 ± 1.5 kg/m3 | mass density ([2]; 293.15 K, m1 = 0.0337): 998.87 ± 1.5 kg/m3 | mass density ([2]; 293.15 K, m1 = 0.0399): 999 ± 1.5 kg/m3 | mass density ([2]; 293.15 K, m1 = 0.0479): 999.15 ± 1.5 kg/m3 | mass density ([2]; 293.15 K, m1 = 0.0503): 999.19 ± 1.5 kg/m3 | mass density ([2]; 298.15 K, m1 = 0.0055): 997.09 ± 1.5 kg/m3 | mass density ([2]; 298.15 K, m1 = 0.0082): 997.13 ± 1.5 kg/m3 | mass density ([2]; 298.15 K, m1 = 0.0092): 997.15 ± 1.5 kg/m3 | mass density ([2]; 298.15 K, m1 = 0.0149): 997.26 ± 1.5 kg/m3 | mass density ([2]; 298.15 K, m1 = 0.0217): 997.39 ± 1.5 kg/m3 | mass density ([2]; 298.15 K, m1 = 0.0252): 997.46 ± 1.5 kg/m3 | mass density ([2]; 298.15 K, m1 = 0.0317): 997.58 ± 1.5 kg/m3 | mass density ([2]; 298.15 K, m1 = 0.0337): 997.62 ± 1.5 kg/m3 | mass density ([2]; 298.15 K, m1 = 0.0399): 997.74 ± 1.5 kg/m3 | mass density ([2]; 298.15 K, m1 = 0.0479): 997.88 ± 1.5 kg/m3 | mass density ([2]; 298.15 K, m1 = 0.0503): 997.92 ± 1.5 kg/m3 | mass density ([2]; 303.15 K, m1 = 0.0055): 995.65 ± 1.5 kg/m3 | mass density ([2]; 303.15 K, m1 = 0.0082): 995.66 ± 1.5 kg/m3 | mass density ([2]; 303.15 K, m1 = 0.0092): 995.68 ± 1.5 kg/m3 | mass density ([2]; 303.15 K, m1 = 0.0149): 995.7 ± 1.5 kg/m3 | mass density ([2]; 303.15 K, m1 = 0.0217): 995.82 ± 1.5 kg/m3 | mass density ([2]; 303.15 K, m1 = 0.0252): 995.9 ± 1.5 kg/m3 | mass density ([2]; 303.15 K, m1 = 0.0317): 996 ± 1.5 kg/m3 | mass density ([2]; 303.15 K, m1 = 0.0337): 996.04 ± 1.5 kg/m3 | mass density ([2]; 303.15 K, m1 = 0.0399): 996.15 ± 1.5 kg/m3 | mass density ([2]; 303.15 K, m1 = 0.0479): 996.3 ± 1.5 kg/m3 | mass density ([2]; 303.15 K, m1 = 0.0503): 996.34 ± 1.5 kg/m3

CCCCCCCC[n+]1ccn(CCCC)c1.[Br-] [1-butyl-3-octyl-1H-imidazolium bromide] + O
mass density ([2]; 293.15 K, m1 = 0.0055): 998.38 ± 1.5 kg/m3 | mass density ([2]; 293.15 K, m1 = 0.01): 998.55 ± 1.5 kg/m3 | mass density ([2]; 293.15 K, m1 = 0.015): 998.75 ± 1.5 kg/m3 | mass density ([2]; 293.15 K, m1 = 0.0216): 999.02 ± 1.5 kg/m3 | mass density ([2]; 293.15 K, m1 = 0.0285): 999.32 ± 1.5 kg/m3 | mass density ([2]; 293.15 K, m1 = 0.0346): 999.58 ± 1.5 kg/m3 | mass density ([2]; 293.15 K, m1 = 0.0412): 999.85 ± 1.5 kg/m3 | mass density ([2]; 293.15 K, m1 = 0.0498): 1000.22 ± 1.5 kg/m3 | mass density ([2]; 298.15 K, m1 = 0.0055): 997.16 ± 1.5 kg/m3 | mass density ([2]; 298.15 K, m1 = 0.01): 997.36 ± 1.5 kg/m3 | mass density ([2]; 298.15 K, m1 = 0.015): 997.53 ± 1.5 kg/m3 | mass density ([2]; 298.15 K, m1 = 0.0216): 997.77 ± 1.5 kg/m3 | mass density ([2]; 298.15 K, m1 = 0.0285): 998.04 ± 1.5 kg/m3 | mass density ([2]; 298.15 K, m1 = 0.0346): 998.28 ± 1.5 kg/m3 | mass density ([2]; 298.15 K, m1 = 0.0412): 998.54 ± 1.5 kg/m3 | mass density ([2]; 298.15 K, m1 = 0.0498): 998.88 ± 1.5 kg/m3 | mass density ([2]; 303.15 K, m1 = 0.0055): 995.68 ± 1.5 kg/m3 | mass density ([2]; 303.15 K, m1 = 0.01): 995.77 ± 1.5 kg/m3 | mass density ([2]; 303.15 K, m1 = 0.015): 995.96 ± 1.5 kg/m3 | mass density ([2]; 303.15 K, m1 = 0.0216): 996.2 ± 1.5 kg/m3 | mass density ([2]; 303.15 K, m1 = 0.0285): 996.48 ± 1.5 kg/m3 | mass density ([2]; 303.15 K, m1 = 0.0346): 996.71 ± 1.5 kg/m3 | mass density ([2]; 303.15 K, m1 = 0.0412): 996.97 ± 1.5 kg/m3 | mass density ([2]; 303.15 K, m1 = 0.0498): 997.31 ± 1.5 kg/m3 | mass density ([2]; 308.15 K, m1 = 0.0055): 994.05 ± 1.5 kg/m3 | mass density ([2]; 308.15 K, m1 = 0.01): 994.08 ± 1.5 kg/m3 | mass density ([2]; 308.15 K, m1 = 0.015): 994.1 ± 1.5 kg/m3 | mass density ([2]; 308.15 K, m1 = 0.0216): 994.32 ± 1.5 kg/m3 | mass density ([2]; 308.15 K, m1 = 0.0285): 994.61 ± 1.5 kg/m3 | mass density ([2]; 308.15 K, m1 = 0.0346): 994.83 ± 1.5 kg/m3 | mass density ([2]; 308.15 K, m1 = 0.0412): 995.08 ± 1.5 kg/m3 | mass density ([2]; 308.15 K, m1 = 0.0498): 995.4 ± 1.5 kg/m3

CCCCCCCC[n+]1ccn(CCCC)c1.[Br-] [1-butyl-3-octyl-1H-imidazolium bromide]
mass density ([1]; 293.15 K): 1123.09 ± 1.8 kg/m3 | mass density ([1]; 298.15 K): 1119.72 ± 1.8 kg/m3 | mass density ([1]; 303.15 K): 1116.27 ± 1.8 kg/m3 | mass density ([1]; 308.15 K): 1112.79 ± 1.8 kg/m3 | mass density ([1]; 313.15 K): 1109.25 ± 1.8 kg/m3 | mass density ([1]; 318.15 K): 1105.74 ± 1.8 kg/m3 | mass density ([1]; 323.15 K): 1102.23 ± 1.8 kg/m3
